System: NOMO1
Test: cell viability relative to DMSO control; higher = less cytotoxic
Settings: 48 h
How it was run: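 Before seeding, each leukemia line was adapted for at least four passages in each medium. NOMO1 or SEM cells (500 cells/well) and P12-Ichikawa cells (1000 cells/well) went into 1536-well plates at 5 μl, then received library compounds in DMSO by pin dosing across 11 threefold concentrations, 47 μM to 0.79 nM. Readout was CellTiter-Glo One luminescence after 48 h at 37°C, and viability is given as a per-plate percentage of DMSO wells, with cell-free wells as background.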

[1] = HPLM + 10% dialyzed FBS, 0.000781 µM
[2] = HPLM + 10% dialyzed FBS, 0.00234 µM
[3] = HPLM + 10% dialyzed FBS, 0.00702 µM
[4] = HPLM + 10% dialyzed FBS, 0.0211 µM
[5] = HPLM + 10% dialyzed FBS, 0.0632 µM
[6] = HPLM + 10% dialyzed FBS, 0.19 µM
[7] = HPLM + 10% dialyzed FBS, 0.569 µM
[8] = HPLM + 10% dialyzed FBS, 1.71 µM
[9] = HPLM + 10% dialyzed FBS, 5.12 µM
[10] = HPLM + 10% dialyzed FBS, 15.4 µM
[11] = HPLM + 10% dialyzed FBS, 46.1 µM
[12] = RPMI 5 mM glucose + 10% FBS, 0.000781 µM
[13] = RPMI 5 mM glucose + 10% FBS, 0.00234 µM
[14] = RPMI 5 mM glucose + 10% FBS, 0.00702 µM
[15] = RPMI 5 mM glucose + 10% FBS, 0.0211 µM
[16] = RPMI 5 mM glucose + 10% FBS, 0.0632 µM
[17] = RPMI 5 mM glucose + 10% FBS, 0.19 µM
[18] = RPMI 5 mM glucose + 10% FBS, 0.569 µM
[19] = RPMI 5 mM glucose + 10% FBS, 1.71 µM
[20] = RPMI 5 mM glucose + 10% FBS, 5.12 µM
[21] = RPMI 5 mM glucose + 10% FBS, 15.4 µM
[22] = RPMI 5 mM glucose + 10% FBS, 46.1 µM
[23] = RPMI 5 mM glucose + 10% dialyzed FBS, 0.000781 µM
[24] = RPMI 5 mM glucose + 10% dialyzed FBS, 0.00234 µM
[25] = RPMI 5 mM glucose + 10% dialyzed FBS, 0.00702 µM
[26] = RPMI 5 mM glucose + 10% dialyzed FBS, 0.0211 µM
[27] = RPMI 5 mM glucose + 10% dialyzed FBS, 0.0632 µM
[28] = RPMI 5 mM glucose + 10% dialyzed FBS, 0.19 µM
[29] = RPMI 5 mM glucose + 10% dialyzed FBS, 0.569 µM
[30] = RPMI 5 mM glucose + 10% dialyzed FBS, 1.71 µM
[31] = RPMI 5 mM glucose + 10% dialyzed FBS, 5.12 µM
[32] = RPMI 5 mM glucose + 10% dialyzed FBS, 15.4 µM
[33] = RPMI 5 mM glucose + 10% dialyzed FBS, 46.1 µM

| SMILES | cell viability [1] | cell viability [2] | cell viability [3] | cell viability [4] | cell viability [5] | cell viability [6] | cell viability [7] | cell viability [8] | cell viability [9] | cell viability [10] | cell viability [11] | cell viability [12] | cell viability [13] | cell viability [14] | cell viability [15] | cell viability [16] | cell viability [17] | cell viability [18] | cell viability [19] | cell viability [20] | cell viability [21] | cell viability [22] | cell viability [23] | cell viability [24] | cell viability [25] | cell viability [26] | cell viability [27] | cell viability [28] | cell viability [29] | cell viability [30] | cell viability [31] | cell viability [32] | cell viability [33] |
| --- | --- | --- | --- | --- | --- | --- | --- | --- | --- | --- | --- | --- | --- | --- | --- | --- | --- | --- | --- | --- | --- | --- | --- | --- | --- | --- | --- | --- | --- | --- | --- | --- | --- |
| Cc1c(C(=O)Nc2cccc(C(F)(F)F)c2)cc(-c2ccccc2)n1CCCN1CCOCC1 | 104% | 99.5% | 112% | 109% | 97.2% | 113% | 129% | 116% | 105% | 95.9% | 82.5% | 107% | 105% | 111% | 100% | 102% | 101% | 96.5% | 92.4% | 91.7% | 96.4% | 95.2% | 115% | 107% | 111% | 109% | 108% | 117% | 111% | 111% | 109% | 91.4% | 73.3% |
| O=C1NC(=O)/C(=C/c2cccc(C(F)(F)F)c2)S1 | 114% | 95.1% | 96.8% | 113% | 102% | 98.4% | 108% | 99.1% | 92.8% | 96.9% | 90% | 90.3% | 90.2% | 94.1% | 101% | 106% | 97.8% | 97.8% | 93.2% | 101% | 96.5% | 80.1% | 95.5% | 99.6% | 99% | 104% | 93.1% | 92.9% | 93.2% | 108% | 103% | 87.9% | 92.2% |
| O=C1N\2CCC3=C([NH]C4=C3C=CC=C4)C2=N/C5=CC=CC=C15 | 111% | 122% | 130% | 134% | 155% | 147% | 130% | 129% | 155% | 130% | 112% | 144% | 124% | 125% | 128% | 132% | 124% | 169% | 136% | 139% | 140% | 131% | 115% | 121% | 129% | 130% | 130% | 124% | 122% | 140% | 135% | 141% | 124% |
| CC(C)[C@H](CO)Nc1nc(Nc2cccc(Cl)c2)c2ncn(C(C)C)c2n1 |  |  |  |  |  |  |  |  |  |  |  |  |  |  |  |  |  |  |  |  |  |  | 111% | 124% | 127% | 125% | 124% | 112% | 123% | 84.2% | 12.6% | 6.44% | 3.06% |
| CCCCCCCCc1ccc(CCC(N)(CO)CO)cc1 | 124% | 124% | 123% | 122% | 112% | 102% | 79.1% | 91% | 60.6% | 48.9% | 2.93% | 99.2% | 104% | 102% | 100% | 105% | 102% | 104% | 93.4% | 90.3% | 64.2% | 2.61% | 113% | 105% | 103% | 113% | 105% | 95.6% | 98.2% | 81% | 70.5% | 65.2% | 2.38% |
| CC(NCc1ccc2c(c1)[nH]/c(=N\C(=O)c1ccc(-c3cn[nH]c3)s1)n2CC(C)(C)O)C(C)(C)C (stereo not given) | 110% | 109% | 113% | 112% | 106% | 103% | 74.4% | 54.1% | 9.83% | 5.43% | 4.17% | 110% | 104% | 109% | 98.7% | 102% | 103% | 98.7% | 87.2% | 10.8% | 5.4% | 3.08% | 116% | 100% | 110% | 99.5% | 101% | 101% | 92.9% | 69.7% | 8.51% | 4.24% | 2.97% |
| NC(=O)c1cccc(N)c1 | 116% | 107% | 119% | 114% | 135% | 134% | 124% | 130% | 126% | 125% | 101% | 97% | 104% | 114% | 120% | 104% | 123% | 105% | 97.8% | 109% | 113% | 127% | 102% | 104% | 114% | 116% | 109% | 133% | 116% | 110% | 112% | 106% | 115% |
| COc1cc2ncnc(Nc3cccc(Br)c3)c2cc1OC | 90.4% | 98.3% | 101% | 98.9% | 109% | 120% | 108% | 118% | 98.2% | 94.5% | 86.1% | 98% | 95.9% | 106% | 110% | 109% | 108% | 110% | 111% | 106% | 112% | 117% | 80.8% | 90.6% | 98.6% | 97.4% | 103% | 103% | 102% | 112% | 102% | 102% | 101% |
| Cc1cc(O)c2c(c1)C(=O)c1cc(O)cc(O)c1C2=O | 105% | 102% | 117% | 104% | 99.3% | 118% | 98.8% | 121% | 96.2% | 98.4% | 87.7% | 85.8% | 104% | 107% | 88.1% | 92.1% | 88% | 97.2% | 85.3% | 90.4% | 85.9% | 82.5% | 90.5% | 99% | 109% | 96.9% | 110% | 94.6% | 92.1% | 92% | 95.7% | 90.3% | 87.4% |
| O=C(CCCCCCC(=O)Nc1ccccc1)NO | 92.9% | 102% | 106% | 96.9% | 113% | 104% | 102% | 111% | 67.3% | 38.4% | 5.95% | 81.3% | 94% | 89.2% | 96.4% | 110% | 105% | 109% | 98.9% | 83.3% | 44% | 5% | 74.9% | 90.8% | 102% | 114% | 119% | 105% | 119% | 113% | 88.6% | 57.6% | 6.52% |
| N[C@@H](CC(=O)N1CCn2c(nnc2C(F)(F)F)C1)Cc1cc(F)c(F)cc1F | 119% | 98.7% | 111% | 119% | 100% | 106% | 103% | 102% | 109% | 94.9% | 83.5% | 83.3% | 97.4% | 84.6% | 86.4% | 92.4% | 84.8% | 86% | 83.4% | 96.2% | 85.1% | 82.9% | 103% | 96.3% | 99.5% | 95.2% | 106% | 91.7% | 93.4% | 100% | 96.2% | 94.8% | 79.5% |
| C[N+](C)([O-])CCNc1ccc(NCC[N+](C)(C)[O-])c2c1C(=O)c1c(O)ccc(O)c1C2=O | 84.5% | 94.9% | 96.7% | 103% | 108% | 97.2% | 80.6% | 70.2% | 51.2% | 48% | 38.3% | 84.4% | 86.9% | 84.1% | 97.2% | 89.4% | 94.5% | 91.4% | 90.4% | 33% | 55.8% | 19.8% | 90.3% | 93.6% | 92.6% | 92.7% | 102% | 99.6% | 90.5% | 77% | 59.7% | 48.5% | 44% |
| CN[C@@H]1C[C@H]2O[C@@](C)([C@@H]1OC)n1c3ccccc3c3c4c(c5c6ccccc6n2c5c31)C(=O)N[C@H]4O | 81.2% | 101% | 93.1% | 78.2% | 96.8% | 56.4% | 48.8% | 35.4% | 22.7% | 18% | 3.31% | 76.2% | 87.6% | 81.4% | 82.7% | 84.6% | 69.4% | 64.7% | 19.6% | 14.8% | 12.7% | 3.97% | 79.9% | 84.5% | 85.9% | 90.5% | 95.9% | 85.5% | 65.5% | 31.6% | 16.9% | 14.7% | 3.79% |
| O=c1[nH]cnc2c1ncn2[C@H]1CC[C@@H](CO)O1 | 91.5% | 91.9% | 118% | 97.9% | 93.2% | 88.8% | 98.6% | 100% | 107% | 71.9% | 55% | 78.5% | 88.5% | 93.2% | 94.7% | 87.7% | 87.7% | 101% | 90.4% | 94.4% | 85.5% | 48.4% | 75.4% | 92.5% | 97.8% | 94.5% | 95.1% | 83.5% | 92.8% | 97.3% | 103% | 89% | 57.1% |

— the supplement of paper PMC11451515
